The record followed here is patent US8053465B2, “Bicycloester derivative” (Kyorin Pharmaceutical Co., Ltd., priority 2004, dated 2011).

For orientation: IC50 means the midpoint of a concentration-inhibition curve. By inhibition is commonly meant how much of the control response was suppressed. Low values mean little suppression, high ones strong suppression.

Assay [1] deals with T1, plasma dipeptidylpeptidase IV (Homo sapiens, UniProt P27487).
T1 construct: 20 μL of plasma diluted 8-fold with saline in a well of a 96-well flat bottom plate; from tissue
T1 sequence (P27487 whole entry): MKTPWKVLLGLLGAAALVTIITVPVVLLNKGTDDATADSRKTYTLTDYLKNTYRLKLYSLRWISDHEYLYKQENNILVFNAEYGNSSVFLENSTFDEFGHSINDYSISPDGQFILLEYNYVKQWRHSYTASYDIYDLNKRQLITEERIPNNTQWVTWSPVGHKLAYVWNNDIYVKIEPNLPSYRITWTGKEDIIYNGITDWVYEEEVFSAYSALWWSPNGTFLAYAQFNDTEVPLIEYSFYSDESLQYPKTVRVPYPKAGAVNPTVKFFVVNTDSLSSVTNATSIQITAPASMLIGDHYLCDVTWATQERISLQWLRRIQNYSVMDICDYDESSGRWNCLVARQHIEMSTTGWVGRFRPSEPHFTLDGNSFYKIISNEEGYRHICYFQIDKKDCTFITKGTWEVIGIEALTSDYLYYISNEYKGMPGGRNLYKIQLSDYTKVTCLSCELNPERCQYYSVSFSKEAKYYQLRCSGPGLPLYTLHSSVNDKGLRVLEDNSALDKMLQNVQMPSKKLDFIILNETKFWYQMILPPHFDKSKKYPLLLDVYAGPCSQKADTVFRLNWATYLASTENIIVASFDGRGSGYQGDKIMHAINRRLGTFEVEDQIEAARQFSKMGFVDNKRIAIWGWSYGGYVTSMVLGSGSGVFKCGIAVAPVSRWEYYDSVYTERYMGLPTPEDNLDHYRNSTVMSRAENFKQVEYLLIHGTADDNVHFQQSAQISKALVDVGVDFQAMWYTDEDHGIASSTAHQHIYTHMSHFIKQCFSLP
Nature of the assay: In vitro dipeptidylpeptidase IV inhibitory activity (plasma, H-Gly-Pro-AMC fluorometry). It is filed as biochemical. Particulars: plasma diluted 8-fold, H-Gly-Pro-AMC.HBr substrate, room temperature 20 minutes. The protocol:
The concentration of free 7-amino-4-methyl-coumarin (AMC) generated by hydrolysis of H-Gly-Pro-AMC.HBr substrate by plasma dipeptidylpeptidase IV was determined by fluorometry.
A 20 μL of buffer (25 mmol/L hepes, 140 mmol/L sodium chloride, 1% bovine serum albumin, 80 mmol/L magnesium chloride hexahydrate, pH 7.4) containing each compound was added to 20 μL of plasma diluted 8-fold with saline in a well of a 96-well flat bottom plate. The plate was left at room temperature for 5 minutes and 10 μL of 0.1 mmol/L H-Gly-Pro-AMC.HBr solution was added to each well to initiate the reaction. […] Using a fluorescent plate reader, the free AMC concentration was determined by exciting the samples at 355 nm and measuring the fluorescence intensity at 460 nm.

The target of assay [2] is T2, plasma dipeptidylpeptidase IV (Mus musculus, UniProt P28843).
T2 construct: The blood samples were centrifuged at 6000 rpm for 2 minutes to separate plasma; tissue Charles River Laboratories Japan; host or cells: plasma of male ICR mice
T2 sequence (P28843 whole entry): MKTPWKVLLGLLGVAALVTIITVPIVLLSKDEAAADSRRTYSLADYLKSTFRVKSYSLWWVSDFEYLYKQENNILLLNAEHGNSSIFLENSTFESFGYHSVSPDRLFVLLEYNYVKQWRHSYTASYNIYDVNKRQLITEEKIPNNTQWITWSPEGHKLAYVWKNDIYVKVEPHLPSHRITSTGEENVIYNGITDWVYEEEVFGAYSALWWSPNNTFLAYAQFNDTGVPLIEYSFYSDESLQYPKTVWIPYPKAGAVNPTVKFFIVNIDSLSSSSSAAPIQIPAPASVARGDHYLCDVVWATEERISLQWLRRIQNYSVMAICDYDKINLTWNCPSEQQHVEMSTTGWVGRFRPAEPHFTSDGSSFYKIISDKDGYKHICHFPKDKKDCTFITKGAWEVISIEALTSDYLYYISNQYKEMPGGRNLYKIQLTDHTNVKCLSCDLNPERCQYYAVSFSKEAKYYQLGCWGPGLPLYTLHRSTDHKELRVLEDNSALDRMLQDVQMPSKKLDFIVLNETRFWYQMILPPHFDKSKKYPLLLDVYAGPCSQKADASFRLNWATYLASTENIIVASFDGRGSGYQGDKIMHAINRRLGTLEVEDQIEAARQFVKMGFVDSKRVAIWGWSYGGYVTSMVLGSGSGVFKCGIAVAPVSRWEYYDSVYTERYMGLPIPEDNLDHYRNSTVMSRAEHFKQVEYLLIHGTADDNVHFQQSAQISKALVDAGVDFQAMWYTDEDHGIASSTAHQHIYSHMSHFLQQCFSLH
In words: Inhibition of plasma dipeptidylpeptidase IV activity in mice by oral administration. It is filed as in vivo. The settings on record: male ICR mice, 0.1 mg/mL suspension at 10 mL/kg, 30 minutes after administration. As to the method: Each compound was suspended in 0.3% sodium carboxymethylcellulose to a concentration of 0.1 mg/mL. The preparation was orally administered to 8-week old male ICR mice (Charles River Laboratories Japan) at a dose of 10 mL/kg. Using an EDTA 2K-treated capillary tube, blood samples were collected from the tail vein before administration and 30 minutes after administration. The blood samples were centrifuged at 6000 rpm for 2 minutes to separate plasma. […] The inhibition was determined from the decrease in the enzymatic activity from the initial activity (% inhibition={(activity before administration−activity after administration)/(activity before administration)}×100).

`CCOC(=O)C12CCC(NCC(=O)N3C[C@@H](F)C[C@H]3C#N)(CC1)CC2` [Example 1, (2S,4S)-1-[[N-(4-ethoxycarbonylbicyclo[2.2.2]oct-1-yl)amino]acetyl]-4-fluoropyrrolidine-2-carbonitrile]: in assay [1], half-maximal inhibition (IC50) required 0.25 nM. In assay [2], this molecule gave an inhibition at 100 µg/mL (stock) of 100%.

The molecule `N#C[C@@H]1C[C@H](F)CN1C(=O)CNC12CCC(C(=O)OCC3CC3)(CC1)CC2` [Example 9, (2S,4S)-1-[[N-(4-cyclopropylmethyloxycarbonylbicyclo[2.2.2]oct-1-yl)amino]acetyl]-4-fluoropyrrolidine-2-carbonitrile] came in with an IC50 in assay [1] of 0.48 nM. Moreover, in assay [2], the inhibition at 100 µg/mL (stock) was found to be 94%. Molecule `N#C[C@@H]1C[C@H](F)CN1C(=O)CNC12CCC(C(=O)OCc3ccc(C(F)(F)F)cc3)(CC1)CC2` [Example 10, (2S,4S)-4-fluoro-1-[[N-[4-(4-trifluoromethylbenzyl)oxycarbonylbicyclo[2.2.2]oct-1-yl]amino]acetyl]pyrrolidine-2-carbonitrile] registered an IC50 in assay [1] of 0.23 nM. `CC(C)COC(=O)C12CCC(NCC(=O)N3C[C@@H](F)C[C@H]3C#N)(CC1)CC2` [Example 11, (2S,4S)-4-fluoro-1-[[N-[4-(2-methylpropyl)oxycarbonylbicyclo[2.2.2]oct-1-yl]amino]acetyl]pyrrolidine-2-carbonitrile] gave an IC50 in assay [1] of 0.13 nM. The molecule further had an inhibition at 100 µg/mL (stock) in assay [2] of 93%.
